This is an account of results in patent US9193704B2, “Hydantoin derivatives as KV3 inhibitors” (AUTIFONY THERAPEUTICS LIMITED, priority 2011, dated 2015).

Molecules are shown by their SMILES.

The test system of one series is p-glycoprotein. In words: In vivo pharmacokinetic assay with the PgP transport inhibitor Elacridar. Conditions: rat; Elacridar 3 mg/kg intravenous shortly before oral 1 mg/kg; 0.5 h; indicates absence of notable p-glycoprotein interactions. Here is the method: Adult male rats (Charles River, Italy) were dosed with test compound orally at 1 mg/kg (5 ml/kg, in 5% v/v DMSO, 0.5% w/v HPMC in water) and intravenously at 0.5 mg/kg (2 ml/kg, in 5% v/v DMSO 40% w/v PEG400 in saline). After oral administration, blood samples were collected under deep Isofluorane anesthesia from the portal vein and heart of each rat (1 rat per time point). After intravenous administration, serial blood samples were collected from the lateral tail vein of each rat. A further group of rats (n=1 per test compound) received a single intravenous administration of the PgP transport inhibitor, Elacridar (3 mg/kg) shortly before the oral administration of the test compound at 1 mg/kg, as above. Blood and brain samples were collected at a single timepoint of 0.5 h after dose administration for these animals. In all cases, blood samples were collected into potassium EDTA tubes.
Blood and brain samples were assayed for test compound concentration using a method based on protein precipitation with acetonitrile followed by HPLC/MS-MS analysis with an optimized analytical method.
The concentrations of test compound in blood (expressed as ng/ml) and brain (expressed as ng/g) at the different time points following either oral or intravenous dosing were analysed using a non-compartmental pharmacokinetic model using WinNonLin Professional version 4.1. The following parameters were derived:
Oral dosing: Cmax, time of maximum concentration (Tmax), AUC, bioavailability (F %), fraction absorbed (Fa %), blood to brain ratio (AUC BB), and Fold-change in AUC BB in the presence of Elacridar.

The subject of series [1] is amphetamine induced hyperlocomotion. In words: Mouse model of amphetamine induced hyperlocomotion. Conditions: 60 mg/kg, 60 minute period following amphetamine administration, P<0.01. The series is classed as in vivo. Here is the method: Example 33 was tested in the_mouse model of amphetamine induced hyperlocomotion described in Example 93 of WO2011/069951A1.
In series [2] the target is T1, human Kv3.1 channels (hKv3.1) (Homo sapiens, UniProt P48547).
T1 construct: expressed in transfected cells; host or cells: CHO/Gam/E1A-clone22 (CGE22) cells, CHO-K1-derived, transiently transduced with BacMam pFBM/human Kv3.1
T1 sequence (P48547 1-511): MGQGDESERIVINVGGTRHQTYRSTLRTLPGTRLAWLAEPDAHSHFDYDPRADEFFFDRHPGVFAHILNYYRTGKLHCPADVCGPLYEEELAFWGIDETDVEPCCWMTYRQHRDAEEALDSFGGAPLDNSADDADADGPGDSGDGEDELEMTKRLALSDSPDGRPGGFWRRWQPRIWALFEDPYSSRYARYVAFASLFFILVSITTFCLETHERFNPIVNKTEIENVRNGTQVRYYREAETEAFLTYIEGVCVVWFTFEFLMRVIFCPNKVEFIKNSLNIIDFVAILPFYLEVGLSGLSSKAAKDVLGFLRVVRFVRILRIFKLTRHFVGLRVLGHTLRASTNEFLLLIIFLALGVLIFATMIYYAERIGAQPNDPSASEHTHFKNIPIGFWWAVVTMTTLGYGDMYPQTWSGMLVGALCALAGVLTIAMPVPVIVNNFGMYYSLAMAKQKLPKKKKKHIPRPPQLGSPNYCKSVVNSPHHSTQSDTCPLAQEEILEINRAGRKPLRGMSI
In words: IonWorks Quattro electrophysiology, potentiation of hKv3.1 currents. It is filed as cell-based. Conditions: between Kv3.1 and Kv3.2 channels. Background: The patch-clamp technique gives a direct electrical read-out from membranes.
Excerpt: The ability of the compounds of the invention to modulate the voltage-gated potassium channel subtypes Kv3.2/3.1 may be determined using the following assay.
This cell line was designed to be an improved CHO-K1-based host for enhanced recombinant protein expression as compared to wild type CHO-K1. The cell line was generated following the transduction of CHO-K1 cells with a BacMam virus expressing the Adenovirus-Gam1 protein and selection with Geneticin-G418, to generate a stable cell line, CHO/Gam-A3. CHO/Gam-A3 cells were transfected with pCDNA3-E1A-Hygro, followed by hygromycin-B selection and FACS sorting to obtain single-cell clones. BacMam-Luciferase and BacMam-GFP viruses were then used in transient transduction studies to select the clone based on highest BacMam transduction and recombinant protein expression. […]
Experiments were conducted at room temperature using IonWorks Quattro™ planar array electrophysiology technology (Molecular Devices Corp.) with PatchPlate™ PPC. […] Planar electrode hole resistances(Rp) were determined by applying a 10 mV voltage step across each well. […] Test pulses protocol may be performed in the absence (pre-read) and presence (post-read) of the test compound. Pre- and post-reads may be separated by the compound addition followed by a 3 minute incubation. […]

As to `CC1(C)NC(=O)N(c2ccc(Oc3ccc4c(c3)C(C(C)(C)C)OC4)nc2)C1=O` (single isomer, unassigned) [Example 50, 3-[6-[(3-tert-butyl-1,3-dihydroisobenzofuran-5-yl)oxy]-3-pyridyl]-5,5-dimethyl-imidazolidine-2,4-dione], the “change in AUC BB in the presence of Elacridar” value (from here on “change in AUC BB”) with p-glycoprotein is on record as “limited change”.

For the compound `CC1(C)NC(=O)N(c2ccc(Oc3ccc4c(c3)C(C)(C(F)(F)F)OC4)nc2)C1=O` (single isomer, unassigned) [Example 52, 5,5-dimethyl-3-[6-[[3-methyl-3-(trifluoromethyl)-1H-isobenzofuran-5-yl]oxy]-3-pyridyl]imidazolidine-2,4-dione], the “change in AUC BB” value in the series on p-glycoprotein is recorded as “limited change”.

In the case of `CC1(C)NC(=O)N(c2cnc(Oc3ccc4c(c3)C3(CCCC3)OC4)nc2)C1=O` [Example 12, 5,5-dimethyl-3-(2-spiro[1H-isobenzofuran-3,1′-cyclopentane]-5-yloxypyrimidin-5-yl)imidazolidine-2,4-dione], in the series with p-glycoprotein, the “change in AUC BB” value was “limited change”. In the case of `CC[C@@]1(C)NC(=O)N(c2ccc(Oc3ccc4c(c3)C(C)(C)OC4)nc2)C1=O` [Example 33, (5R)-3-[6-[(3,3-dimethyl-1H-isobenzofuran-5-yl)oxy]-3-pyridyl]-5-ethyl-5-methyl-imidazolidine-2,4-dione], the “change in AUC BB” value with p-glycoprotein is given as “limited change”. Besides, the “increase in locomotor activity induced by amphetamine” value in series [1] was “completely prevented”. Take `CC1(C)NC(=O)N(c2ccc(Oc3ccc4c(c3)C3(CCC3)OC4)nc2)C1=O` [Example 58, 5,5-dimethyl-3-(6-spiro[1H-isobenzofuran-3,1′-cyclobutane]-5-yloxy-3-pyridyl)imidazolidine-2,4-dione]: the “change in AUC BB” value with p-glycoprotein is listed as “limited change”.

Take `CC[C@H]1NC(=O)N(c2ccc(Oc3cccc4c3C3(CC3)CO4)nc2)C1=O` [Reference Example 87, (5R)-5-ethyl-3-[6-(spiro[1-benzofuran-3,1′-cyclopropan]-4-yloxy)-3-pyridinyl]-2,4-imidazolidinedione]: in series [2], the “difference in pEC50 values between the two channels” value amounted to 0.7 log unit. Turning to `CC1(C)NC(=O)N(c2ccc(Oc3cccc4c3C3(CC3)CO4)nc2)C1=O` [Reference Example 88, 5,5-dimethyl-3-[6-(spiro[1-benzofuran-3,1′-cyclopropan]-4-yloxy)-3-pyridinyl]-2,4-imidazolidinedione], the “difference in pEC50 values between the two channels” value in series [2] came to 0.7 log unit.
